{"source": "ChEMBL document CHEMBL1201862", "about": "“PubChem BioAssay data set” (2004)", "key": {"[1]": {"test": "cytotoxicity toward NIH3T3 fibroblasts, dose response, counter-screen, cell-based, ATP luminescence, mouse fibroblasts (AID 2010);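 note: cells exposed to compound for about 90 hours before reading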", "type": "functional"}, "[2]": {"test": "inhibitors of intracellular T. cruzi replication, confirmation, NIH3T3 host cells, beta-gal luminescence (AID 2044);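 note: luminescent beta-galactosidase reporter signal from transgenic T. cruzi replicating inside host cells; inhibitors lower the luminescence signal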", "type": "functional, cell-based"}, "Cytochrome P450 2C19": {"biological_target": "Cytochrome P450 2C19 (Homo sapiens, UniProt P33261)", "sequence (P33261 whole entry)": "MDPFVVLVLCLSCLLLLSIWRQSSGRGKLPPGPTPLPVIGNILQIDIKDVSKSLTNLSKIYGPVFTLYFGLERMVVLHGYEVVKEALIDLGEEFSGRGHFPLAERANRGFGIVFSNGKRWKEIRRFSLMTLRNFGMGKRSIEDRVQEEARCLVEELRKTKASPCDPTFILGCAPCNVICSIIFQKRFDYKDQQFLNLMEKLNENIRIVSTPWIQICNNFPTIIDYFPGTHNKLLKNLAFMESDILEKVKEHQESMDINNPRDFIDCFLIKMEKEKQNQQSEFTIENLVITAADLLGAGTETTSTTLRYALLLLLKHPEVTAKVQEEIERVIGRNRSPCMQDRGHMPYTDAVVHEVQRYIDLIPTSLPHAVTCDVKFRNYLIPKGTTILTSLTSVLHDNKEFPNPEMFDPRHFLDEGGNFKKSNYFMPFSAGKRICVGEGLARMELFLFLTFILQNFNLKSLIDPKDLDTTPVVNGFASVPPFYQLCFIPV", "test": "Cytochrome panel assay with activity outcomes. Panel member name: p450-cyp2c19 Compounds with AC50 equal or less than 10 uM are considered active", "type": "functional"}, "Cytochrome P450 1A2": {"biological_target": "T1, Cytochrome P450 1A2 (Homo sapiens, UniProt P05177)", "T1 sequence (P05177 whole entry)": "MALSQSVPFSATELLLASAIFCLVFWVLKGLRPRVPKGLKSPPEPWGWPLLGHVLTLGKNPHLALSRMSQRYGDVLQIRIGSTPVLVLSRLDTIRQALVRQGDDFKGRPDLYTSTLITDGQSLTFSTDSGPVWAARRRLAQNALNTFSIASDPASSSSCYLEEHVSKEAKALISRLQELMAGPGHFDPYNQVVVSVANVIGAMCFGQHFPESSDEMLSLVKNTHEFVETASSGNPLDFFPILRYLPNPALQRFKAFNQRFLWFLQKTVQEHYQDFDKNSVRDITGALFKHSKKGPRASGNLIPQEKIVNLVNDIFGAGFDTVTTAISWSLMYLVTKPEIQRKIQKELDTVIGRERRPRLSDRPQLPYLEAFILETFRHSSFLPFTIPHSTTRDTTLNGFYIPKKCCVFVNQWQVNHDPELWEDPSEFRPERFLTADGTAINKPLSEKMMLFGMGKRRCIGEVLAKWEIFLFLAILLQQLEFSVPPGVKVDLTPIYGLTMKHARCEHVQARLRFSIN"}, "Cytochrome P450 2C9": {"biological_target": "Cytochrome P450 2C9 (Homo sapiens, UniProt P11712)", "sequence (P11712 whole entry)": "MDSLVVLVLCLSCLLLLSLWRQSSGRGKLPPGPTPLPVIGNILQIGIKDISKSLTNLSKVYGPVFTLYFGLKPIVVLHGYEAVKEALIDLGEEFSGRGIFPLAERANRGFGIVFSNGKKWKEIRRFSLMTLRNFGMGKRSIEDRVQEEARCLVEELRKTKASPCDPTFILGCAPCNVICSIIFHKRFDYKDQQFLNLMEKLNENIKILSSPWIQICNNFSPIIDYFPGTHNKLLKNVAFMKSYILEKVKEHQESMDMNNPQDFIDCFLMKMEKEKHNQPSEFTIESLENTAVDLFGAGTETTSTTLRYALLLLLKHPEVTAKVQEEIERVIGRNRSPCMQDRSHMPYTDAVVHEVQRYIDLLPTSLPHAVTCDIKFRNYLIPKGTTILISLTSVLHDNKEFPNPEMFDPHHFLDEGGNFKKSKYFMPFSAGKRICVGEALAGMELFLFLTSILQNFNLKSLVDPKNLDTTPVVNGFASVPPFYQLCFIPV"}, "[3]": {"biological_target": "T2, Corticotropin-releasing factor receptor 2/Corticotropin-releasing factor-binding protein (Homo sapiens, UniProt P24387+Q13324)", "T2 sequence (Q13324 whole entry)": "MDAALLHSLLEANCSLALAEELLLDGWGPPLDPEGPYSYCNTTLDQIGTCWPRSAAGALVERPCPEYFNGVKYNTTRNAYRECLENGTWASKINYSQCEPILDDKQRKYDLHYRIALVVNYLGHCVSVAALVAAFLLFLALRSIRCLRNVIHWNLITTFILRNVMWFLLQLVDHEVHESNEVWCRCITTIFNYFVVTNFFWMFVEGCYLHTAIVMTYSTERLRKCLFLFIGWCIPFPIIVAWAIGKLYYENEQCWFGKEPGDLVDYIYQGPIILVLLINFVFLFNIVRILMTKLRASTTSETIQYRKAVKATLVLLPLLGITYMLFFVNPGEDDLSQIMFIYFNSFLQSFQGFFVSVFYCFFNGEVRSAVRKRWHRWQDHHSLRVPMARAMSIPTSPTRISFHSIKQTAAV", "T2 sequence (P24387 whole entry)": "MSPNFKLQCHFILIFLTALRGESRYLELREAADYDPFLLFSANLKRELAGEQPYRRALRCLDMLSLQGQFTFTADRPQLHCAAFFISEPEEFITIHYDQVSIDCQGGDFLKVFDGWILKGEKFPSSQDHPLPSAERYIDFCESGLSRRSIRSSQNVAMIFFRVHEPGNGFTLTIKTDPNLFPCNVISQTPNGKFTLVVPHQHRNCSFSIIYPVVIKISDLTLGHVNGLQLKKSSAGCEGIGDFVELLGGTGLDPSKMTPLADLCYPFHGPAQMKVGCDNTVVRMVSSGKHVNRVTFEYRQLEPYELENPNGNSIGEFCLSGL", "test": "activators of CRF receptor 2 with binding protein – uHTS hits, confirmation (AID 602473)", "type": "functional", "conditions": "read-out: EC50_Mean"}, "H9c2": {"tested_on": "H9c2", "test": "cells", "type": "functional, cell-based", "conditions": "Rattus norvegicus, H9c2, Myocardium"}}, "note": "Calls of active or inactive are those of the source.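 Throughout, for IC50: confirmatory concentration-response retest of ultra-high-throughput screening hits for modulation of myocardial damage; cell death induced by hydrogen peroxide oxidative stress; compound pretreatment for 60 min then peroxide exposure for 2 h; potency is for protecting the cells against peroxide damage rather than for killing them.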"}
{"smiles": "CN(Cc1c[nH]c2ccccc12)C1CCCCC1", "values": [{"measurement": "EC50", "setting": "[1]", "result": "23.9 µM (active)"}, {"measurement": "EC50", "setting": "[2]", "result": "0.699 µM (active)"}]}
{"smiles": "O=C(O)CCSCc1ccccc1", "values": [{"measurement": "AC50", "setting": "Cytochrome P450 2C19", "result": "inconclusive"}]}
{"smiles": "O=C(c1ccc(-c2nnc(Nc3ccccc3)c3ccccc23)cc1)N1C[C@H]2C[C@H](C1)c1cccc(=O)n1C2", "values": [{"measurement": "AC50", "setting": "Cytochrome P450 1A2", "result": "14.1 µM (inconclusive)"}, {"measurement": "AC50", "setting": "Cytochrome P450 2C9", "result": "2 µM (inconclusive)"}]}
{"smiles": "COCCCn1c(=S)[nH]c2ncccc2c1=O", "values": [{"measurement": "AC50", "setting": "Cytochrome P450 2C19; read-out: AC50", "result": "0.501 µM (inconclusive)"}, {"measurement": "AC50", "setting": "Cytochrome P450 2C9", "result": "0.00562 µM (inconclusive)"}]}
{"smiles": "O=C(CSc1nnc(COc2ccc(F)cc2)o1)N1c2ccccc2CCc2ccccc21", "values": [{"measurement": "EC50", "setting": "[1]", "result": "> 60 µM (not active)"}, {"measurement": "EC50", "setting": "[2]", "result": "1 µM (active)"}]}
{"smiles": "C=CCN1C(=O)c2cccc3c(N4CCCCC4)ccc(c23)C1=O", "values": [{"measurement": "EC50", "setting": "[3]", "result": "5.47 µM (active)"}]}
{"smiles": "Cc1ccc(C(C(=O)NCc2ccccc2)N(Cc2cccs2)C(=O)c2ccc3c(c2)OCCO3)cc1", "note": "(configuration not stated)", "values": [{"measurement": "IC50", "setting": "H9c2", "result": "> 79 µM (inactive)"}]}
{"smiles": "COc1cc(C(=O)Nc2nc(OC)c(-c3ccccc3)c(OC)n2)cc(OC)c1OC", "values": [{"measurement": "IC50", "setting": "H9c2", "result": "> 79 µM (inactive)"}]}
{"smiles": "CCOC(=O)C1CCCN(C(=O)CCCOc2cc(=O)n(C)c3ccccc23)C1", "note": "(configuration not stated)", "values": [{"measurement": "AC50", "setting": "Cytochrome P450 1A2", "result": "25.1 µM (inconclusive)"}]}
{"smiles": "CC(=O)Nc1ccc(Sc2ncccc2C(=O)Nc2ccc(OC(F)(F)F)cc2)cn1", "values": [{"measurement": "EC50", "setting": "[3]", "result": "2.96 µM (active)"}]}
{"smiles": "Cc1sc2nc(SCC(=O)N3CCOCC3)nc(O)c2c1C", "values": [{"measurement": "IC50", "setting": "H9c2", "result": "> 79 µM (inactive)"}]}
{"smiles": "CC(C)(C)C(C(Oc1ccc(Cl)cc1)n1cncn1)n1nnnc1C(c1cccc(Cl)c1)N1CCCCC1", "note": "(configuration not stated)", "values": [{"measurement": "EC50", "setting": "[1]", "result": "> 60 µM (not active)"}, {"measurement": "EC50", "setting": "[2]", "result": "1.59 µM (active)"}]}
{"smiles": "NC(=O)c1ccccc1OCC(=O)NC12CC3CC(CC(C3)C1)C2", "values": [{"measurement": "IC50", "setting": "H9c2", "result": "36.9 µM (inactive)"}]}
{"smiles": "Cc1ccc(C(=O)N/C(=C\\c2ccc(-c3ccc([N+](=O)[O-])cc3)o2)C(=O)NC2CCS(=O)(=O)C2)cc1", "note": "(configuration not stated)", "values": [{"measurement": "EC50", "setting": "[3]", "result": "8.22 µM (active)"}]}
{"smiles": "N#Cc1c(-c2ccc(F)cc2)cc(-c2ccccc2)nc1SCC(=O)NCC(=O)O", "values": [{"measurement": "EC50", "setting": "[3]", "result": "5.47 µM (active)"}]}
{"smiles": "O=[N+]([O-])c1ccc(C[S+]([O-])Cc2ccccc2)cc1", "note": "(configuration not stated)", "values": [{"measurement": "AC50", "setting": "Cytochrome P450 1A2", "result": "3.16 µM (inconclusive)"}]}
{"smiles": "CN(Cc1ccco1)c1cc(-c2cccnc2)ncn1", "values": [{"measurement": "AC50", "setting": "Cytochrome P450 2C19; read-out: AC50", "result": "20 µM (inconclusive)"}]}
{"smiles": "NC(=O)CNC(=O)[C@@H]1CC2(CC(c3ccccc3)=NO2)CN1C(=O)c1ccc(Br)cc1", "note": "(some centres not stated)", "values": [{"measurement": "AC50", "setting": "Cytochrome P450 2C19; read-out: AC50", "result": "39.8 µM (inconclusive)"}, {"measurement": "AC50", "setting": "Cytochrome P450 1A2", "result": "25.1 µM (inconclusive)"}]}
{"smiles": "CCCCCC(=O)NC(=S)NNC(=O)c1ccc([N+](=O)[O-])cc1", "values": [{"measurement": "EC50", "setting": "[3]", "result": "5.19 µM (active)"}]}
{"smiles": "COc1ccc(NC(=O)CN(C)C(=O)Cc2nnc(O)c3ccccc23)cc1", "values": [{"measurement": "IC50", "setting": "H9c2", "result": "19.6 µM (active)"}]}
{"smiles": "COc1ccc(S(=O)(=O)N(CC(=O)NCC2CCCO2)c2ccc(F)cc2)cc1OC", "note": "(configuration not stated)", "values": [{"measurement": "AC50", "setting": "Cytochrome P450 2C19; read-out: AC50", "result": "10 µM (inconclusive)"}, {"measurement": "AC50", "setting": "Cytochrome P450 2C9", "result": "10 µM (inconclusive)"}]}
{"smiles": "CC(C)=CCc1ccc(=O)c(O)cc1C(C)C", "values": [{"measurement": "IC50", "setting": "H9c2", "result": "> 79 µM (inactive)"}]}
{"smiles": "COc1cccc(N2CCN(C(=O)Nc3ccc4c(c3)NC(=O)CO4)CC2)c1", "values": [{"measurement": "AC50", "setting": "Cytochrome P450 2C9", "result": "12.6 µM (inconclusive)"}]}
{"smiles": "CC(C)(O)c1cn(-c2nonc2N)nn1", "values": [{"measurement": "AC50", "setting": "Cytochrome P450 2C19; read-out: AC50", "result": "3.16 µM (inconclusive)"}, {"measurement": "AC50", "setting": "Cytochrome P450 1A2", "result": "39.8 µM (inconclusive)"}]}
{"smiles": "COc1ccc(NC(=O)CCCc2nc(O)c3ccccc3n2)cc1Cl", "values": [{"measurement": "IC50", "setting": "H9c2", "result": "> 79 µM (inactive)"}]}
{"smiles": "COc1cc(-c2cc(NC(C)=O)c3ncc(-c4ccc(F)cc4)n3c2)cc(OC)c1OC", "values": [{"measurement": "IC50", "setting": "H9c2", "result": "> 79 µM (inactive)"}]}
{"smiles": "O=C(Cc1nnc(O)c2ccccc12)NCc1ccccn1", "values": [{"measurement": "IC50", "setting": "H9c2", "result": "35.7 µM (inactive)"}]}
{"smiles": "COc1ccc(C(=O)NN/C=C/C(=O)c2ccc(Br)cc2)cc1", "values": [{"measurement": "IC50", "setting": "H9c2", "result": "> 79 µM (inactive)"}]}
{"smiles": "N=C(N)N/N=C/c1ccc(Br)cc1", "values": [{"measurement": "EC50", "setting": "[1]", "result": "6.37 µM (active)"}, {"measurement": "EC50", "setting": "[2]", "result": "0.141 µM (active)"}]}
{"smiles": "CCN(CC)S(=O)(=O)c1cccc(C(=O)N/N=C/c2ccccn2)c1", "values": [{"measurement": "IC50", "setting": "H9c2", "result": "> 79 µM (inactive)"}]}
{"smiles": "COc1ccc(OC)c(/C=N/Nc2nncn2/N=C/c2cc(OC)ccc2OC)c1", "values": [{"measurement": "IC50", "setting": "H9c2", "result": "> 79 µM (inactive)"}]}
{"smiles": "Cc1s/c(=N\\C(=O)c2ccco2)n(C)c1-c1ccc(F)cc1", "values": [{"measurement": "AC50", "setting": "Cytochrome P450 2C19; read-out: AC50", "result": "3.55 µM (inconclusive)"}]}
{"smiles": "N#CCCn1cc(/C=N/O)c(-c2ccc(Cl)cc2)n1", "values": [{"measurement": "AC50", "setting": "Cytochrome P450 2C9", "result": "15.8 µM (inconclusive)"}]}
